# Assay results published in ChEMBL document CHEMBL5244215, “Recent advancement of piperidine moiety in treatment of cancer- A review” (Eur J Med Chem, 2018).
# Counter-ions that a name gives are not always drawn.
# Columns and labels:
# [1] = tested on: MCF7; experiment: cells; format: functional; conditions: Homo sapiens, time 48 hrs
# Description: Growth inhibition at human MCF7 cells incubated for 48 hrs by SRB assay
# [2] = tested on: L1210; experiment: cells; format: functional, cell-based; conditions: Mus musculus, L1210, 48 h
# [3] = cells; format: functional, cell-based, Molt 4/C8; conditions: Homo sapiens, Molt4/C8, 48 h
# [4] = tested on: IMR-32; experiment: cells; format: functional, cell-based; conditions: Homo sapiens, IMR-32, 0.5 h
# Description: Cytotoxicity against human IMR-32 cells assessed as inhibition of cell growth incubated for 30 mins by SRB assay
# [5] = tested on: COLO 205; experiment: cells; format: functional, cell-based; conditions: Homo sapiens, COLO 205, 0.5 h
# Description: Cytotoxicity against human COLO 205 cells assessed as inhibition of cell growth incubated for 30 mins by SRB assay
# [6] = tested on: K562; experiment: cells; format: functional, cell-based; conditions: Homo sapiens, K562, 48 h
# [7] = tested on: K562; experiment: cells; format: functional, cell-based; conditions: Homo sapiens
# Description: Antileukemic activity against human K562 cells assessed as inhibition of cell growth incubated for 48 to 72 hrs by MTT assay
# [8] = tested on: CCRF-CEM; experiment: cells; format: functional, cell-based; conditions: Homo sapiens
# Description: Antileukemic activity against human CEM cells assessed as inhibition of cell growth incubated for 48 to 72 hrs by MTT assay
# [9] = cells; format: functional, cell-based; conditions: Homo sapiens, QBC939, light or radiation study, 24 h
# Description: Phototoxicity against human QBC939 cells assessed as inhibition of cell growth incubated for 24 hrs followed by irradiated with 54 J/cm^2 of light dose and measured after 24 hrs by MTT colorimetric assay
# [10] = in vitro; conditions: human, wi-38
# [11] = tested on: HepG2; experiment: cells; format: functional, cell-based; conditions: Homo sapiens, HepG2, 48 h
# Description: Antiproliferative activity against human HepG2 cells assessed as reduction in cell viability incubated for 48 hrs by MTT spectrophotometric assay
# [12] = tested on: BEL-7404 tumor cell line; experiment: cells; format: functional, cell-based; conditions: Homo sapiens, BEL-7404, 72 h
# Description: Antiproliferative activity against human BEL-7404 tumor cell line assessed as inhibition of cell proliferation incubated for 72 hrs by MTT assay
# [13] = tested on: COLO 205; experiment: cells; format: functional, cell-based; conditions: Homo sapiens, COLO 205, 48 h
# [14] = tested on: HT-29; experiment: cells; format: functional, cell-based; conditions: Homo sapiens, HT-29, 48 h
# [15] = tested on: HCT-15; experiment: cells; format: functional, cell-based; conditions: Homo sapiens, HCT-15, 48 h
# [16] = tested on: IMR-32; experiment: cells; format: functional; conditions: Homo sapiens, time 48 hrs
# Description: Growth inhibition at human IMR-32 cells incubated for 48 hrs by SRB assay
# [17] = tested on: P388; experiment: cells; format: functional, cell-based; conditions: Mus musculus, P388, 48 h
# [18] = tested on: K562; experiment: cells; format: functional, cell-based; conditions: Homo sapiens; remark: listed apart in the source
# Description: Antiproliferative activity against human K562 cells assessed as inhibition of cell proliferation incubated for 48 to 72 hrs by MTT assay
# [19] = tested on: REH; experiment: cells; format: functional, cell-based; conditions: Homo sapiens
# Description: Antiproliferative activity against human REH cells assessed as inhibition of cell proliferation incubated for 48 to 72 hrs by MTT assay
# [20] = tested on: CCRF-CEM; experiment: cells; format: functional, cell-based; conditions: Homo sapiens, 48 h
# [21] = tested on: HSC-2; experiment: cells; format: functional; conditions: Homo sapiens, time 48 hrs
# Description: Cytotoxicity against human HSC-2 cells assessed as reduction in cell viability incubated for 48 hrs by MTT assay
# [22] = tested on: Ca9-22; experiment: cells; format: functional; conditions: Homo sapiens, time 48 hrs
# Description: Cytotoxicity against human Ca9-22 cells assessed as reduction in cell viability incubated for 48 hrs by MTT assay
# [23] = tested on: HSC-4; experiment: cells; format: functional; conditions: Homo sapiens, time 48 hrs
# Description: Cytotoxicity against human HSC-4 cells assessed as reduction in cell viability incubated for 48 hrs by MTT assay
# [24] = tested on: HSC-3; experiment: cells; format: functional; conditions: Homo sapiens, time 48 hrs
# Description: Cytotoxicity against human HSC-3 cells assessed as reduction in cell viability incubated for 48 hrs by MTT assay
# [25] = tested on: MDA-MB-231; experiment: cells; format: functional; conditions: Homo sapiens, time 48 hrs
# Description: Growth inhibition at human MDA-MB-231 cells incubated for 48 hrs by SRB assay
# [26] = tested on: SiHa; experiment: cells; format: functional; conditions: Homo sapiens, time 48 hrs
# Description: Growth inhibition at human SiHa cells incubated for 48 hrs by SRB assay
# [27] = tested on: NCI-H3122; experiment: cells; format: functional, cell-based; conditions: Homo sapiens
# Description: Antiproliferative activity against human NCI-H3122 cells assessed as inhibition of cell proliferation
# [28] = tested on: SNB-19; experiment: cells; format: functional; conditions: Homo sapiens, time 72 hrs, read-out: ED50 (the source's name)
# Description: Antiproliferative activity against human SNB-19 cells assessed as cell growth inhibition incubated for 72 hrs by WST-1 assay
# [29] = tested on: HCT-116; experiment: cells; format: functional, cell-based; conditions: Homo sapiens, HCT-116, 48 h
# [30] = tested on: KM12; experiment: cells; format: functional, cell-based; conditions: Homo sapiens, KM12, 48 h
# [31] = tested on: SW-620; experiment: cells; format: functional, cell-based; conditions: Homo sapiens, SW-620, 48 h
# [32] = tested on: HCC 2998; experiment: cells; format: functional, cell-based; conditions: Homo sapiens, HCC 2998, 48 h
# [33] = animal or person; format: functional, organism-based; conditions: Homo sapiens, QBC939, light or radiation study, 336 h
# [34] = tested on: A549; experiment: cells; format: functional, cell-based; conditions: Homo sapiens, A549, 48 h
# [35] = tested on: SK-N-SH; experiment: cells; format: functional, cell-based; conditions: Homo sapiens, 48 h
# [36] = tested on: PANC-1; experiment: cells; format: functional; conditions: Homo sapiens, time 48 hrs
# Description: Growth inhibition at human PANC-1 cells incubated for 48 hrs by SRB assay
compound,measurement,setting,value
O=C(/C=C/c1ccccc1)c1ccc(OCCN2CCCC2)cc1,GI50,[1],< 10 µM
O=C1/C(=C/c2ccccc2)CN(C(=O)c2ccc(/C=C/C(=O)c3ccc(O)cc3)cc2)C/C1=C\c1ccccc1,IC50,[2],5.34 µM
same,IC50,[3],1.6 µM
COc1cccc2c1C(=O)c1c(O)c3c(c(O)c1C2=O)C[C@@](O)(C(=O)CO)C[C@@H]3O[C@H]1C[C@H](N)[C@H](O)[C@H](C)O1 [DOXORUBICIN HYDROCHLORIDE],IC50,[4],1.7 µM
O=C(/C=C/c1ccc(OCCN2CCCCC2)cc1)c1ccccc1,GI50,[1],< 10 µM
CN1O[C@@H](c2ccccc2)[C@@H]2CN(c3ccccc3)c3oc4ccccc4c(=O)c3[C@@H]21,IC50,[5],12.6 µM
O=c1[nH]cc(F)c(=O)[nH]1 [FLUOROURACIL],IC50,[6],8.48 µg/mL
same,IC50,[5],27.7 µM
COc1ccc(C(=O)c2ccc(OCC(=O)N3CCC(CCCC4CCN(C(=O)Nc5ccc(Cl)cc5)CC4)CC3)cc2)c(OC)c1,IC50,[7],1.6 µM
same,IC50,[8],2 µM
O=C(/C=C/c1ccccc1)c1ccc(OCCN2CCCCC2)cc1,GI50,[1],< 10 µM
COC(C)c1c(C)c2cc3nc(cc4[nH]c(cc5nc(cc1[nH]2)C(C)=C5CCC(=O)O)c(CCC(=O)O)c4C)C(C)=C3C(C)O (stereo not drawn),IC50,[9],9.46 µM
COc1cc(/C=C/C(=O)N2CCC=C(Cl)C2=O)cc(OC)c1OC,IC50 at 48 h,[10],> 60 µM
O=C(NC1CCN(Cc2c(F)cccc2F)CC1)c1ccc(Oc2ccccc2)cc1,IC50,[11],0.25 µM
CCOC(=O)C12CC3CC(C1)CC(C(=O)OC1CC(C)(C)N(O)C(C)(C)C1)(C3)C2,IC50,[12],4.33 µM
c1cc2c(cc1CN1CCC(=NN=C3CCN(Cc4ccc5c(c4)OCO5)CC3)CC1)OCO2,IC50,[6],6.35 µg/mL
CCN1CC[C@@](O)(c2ccc(Oc3ccc(C)cc3)cc2)[C@H](C(=O)c2ccc(Oc3ccc(C)cc3)cc2)C1,IC50,[13],12 µM
same,IC50,[14],3.31 µM
same,IC50,[15],3.98 µM
O=C(Nc1ccccc1)NC1CCN(c2cc(-c3ccc(Oc4ccccc4)cc3)ncn2)CC1,GI50,[16],0.65 µM
O=C1/C(=C/c2ccccc2)CN(C(=O)c2ccc(/C=C/C(=O)c3ccc([N+](=O)[O-])cc3)cc2)C/C1=C\c1ccccc1,IC50,[17],0.221 µM
O=C(c1ccc(F)c([N+](=O)[O-])c1)N1CCC(CCCC2CCNCC2)CC1,IC50,[18],2 µM
same,IC50,[19],2.3 µM
O=C1/C(=C/c2ccccc2)CN(C(=O)c2ccc(/C=C/C(=O)c3ccccc3)cc2)C/C1=C\c1ccccc1,IC50,[20],1.58 µM
COc1cc(/C=C2\Cc3ccccc3C2=O)cc(CN2CCCCC2)c1O,CC50,[21],7.7 µM
same,CC50,[22],6.5 µM
same,CC50,[23],9.9 µM
same,CC50,[24],8.4 µM
COc1ccc(CNC(=O)NC2CCN(c3cc(-c4ccc(Oc5ccccc5)cc4)ncn3)CC2)cc1,GI50,[25],0.2 µM
COC(=O)c1ccc(NC(=O)NC2CCN(c3cc(-c4ccc(OC)cc4F)ncn3)CC2)cc1,GI50,[26],0.22 µM
COc1cc(C2CCN(C(=O)CO)CC2)ccc1Nc1ncc(C(F)(F)F)c(Nc2ccc(C3CCN(C(=O)CO)CC3)cc2OC)n1,IC50,[27],0.046 µM
CN1OC[C@@H]2CN(c3ccccc3)c3oc4cc(Cl)ccc4c(=O)c3[C@@H]21,IC50,[4],10.1 µM
Cn1cnc2nc(SCCN3CCCCC3)nc(SCCN3CCCCC3)c21,EC50,[28],9.18 µg/mL
CCN1CC[C@@](O)(c2ccc(Oc3ccc(Cl)cc3)cc2)[C@H](C(=O)c2ccc(Oc3ccc(Cl)cc3)cc2)C1,IC50,[29],3.8 µM
same,IC50,[30],2.57 µM
CCN1CC[C@@](O)(c2ccc(Oc3ccccc3)cc2)[C@H](C(=O)c2ccc(Oc3ccccc3)cc2)C1,IC50,[31],6.61 µM
same,IC50,[32],12 µM
COc1ccc(/C2=C3\C=CC(=N3)/C(c3ccc(OC)cc3)=c3/cc/c([nH]3)=C(\c3ccc(OC)cc3)C3=NC(C(N4CCCCC4)=C3)C(c3ccc(OC)cc3)c3ccc2[nH]3)cc1 (stereo not drawn),IC50,[33],5.48 µM
COc1ccc(C(=O)c2ccc(OCC(=O)N3CCC(CCCC4CCN(C(=S)Nc5ccc(Cl)cc5)CC4)CC3)cc2)c(OC)c1,IC50,[7],2.1 µM
same,IC50,[8],2.1 µM
O=C(/C=C/c1ccc(Cl)cc1)c1ccc(OCCN2CCCCC2)cc1,GI50,[1],< 10 µM
COc1ccc(C(=O)c2ccc(OCC(=O)N3CCC(CCCC4CCN(C(=O)Nc5ccc(F)cc5)CC4)CC3)cc2)c(OC)c1,IC50,[7],2.2 µM
same,IC50,[8],2.3 µM
COC(=O)C1C(=O)CC(c2ccc(OC)cc2)N(c2ccccc2)C1c1ccc(OC)cc1 (stereo not drawn),IC50,[34],27 µM
same,IC50,[35],11 µM
COc1ccc(/C=C/C(=O)c2ccc(OCCN3CCCCC3)cc2)cc1,GI50,[1],< 10 µM
O=C(/C=C/c1ccc(OCCN2CCCCC2)cc1)c1ccc(F)cc1,GI50,[1],< 10 µM
COc1ccc(CNC(=O)NC2CCN(c3cc(-c4ccc(OC)cc4F)ncn3)CC2)cc1,GI50,[36],0.47 µM
